In one test the test system is K. pneumoniae. The settings on record: 20 h.
The test system of another test is E. coli (K-12 MG1655). The settings on record: Table 3; K-12 MG1655; broth microdilution, 50:50 PBS/LB-broth, 200 µL, 20 h, 37 °C.
A further test concerns P. aeruginosa. The settings on record: 20 h.
In another test the test system is E. faecium. The settings on record: 20 h.
A further test deals with A. baumannii. To be noted: 20 h.
A further test relates to E. cloacae. To be noted: 20 h.
Test [1] deals with S. aureus (ATCC 29213, MSSA). The settings on record: ATCC 29213, 20 h.
For a further test, the system named is S. aureus (ATCC 29213). Type of test: cell-based. The settings on record: ATCC 29213, 20 h. Here is the method: The broth microdilution method was used to determine minimal inhibitory concentration (MIC) and minimal bactericidal concentration (MBC), in accordance with the EUCAST standards for the broth microdilution method. […] In brief, two-fold serial dilutions of the lipopeptides were performed in a 96-well plate in PBS, with a final volume of 100 µl per well, after which 100 µl of LB-broth media containing approximately 5 × 10^5 CFU/ml of bacteria was added to each well. The plate was then incubated for 20 h in 37 °C on a shaker (400 rpm). The effect of lipopeptide-antibiotic combinations was investigated by performing checkerboard assays. The assays were performed in accordance with the MIC and MBC tests conducted above, but with horizontal and longitudinal two-fold serial dilutions of the tested compounds. […] The fractional inhibitory concentration (FIC) and fractional bactericidal concentration (FBC) were calculated by the equation (MIC or MBC of peptide in combination/MIC or MBC of peptide alone) + (MIC or MBC of antibiotic in combination/MIC or MBC of antibiotic alone). […] All experiments were repeated at least three times.

A short description of test [2]: Carboxyfluorescein release assay, mammalian liposome model. It counts as biochemical. To be noted: 65:5:30 POPC:POPS:Chol. liposomes, 25 µM lipid, 10 mM PBS pH 7.4, 10^–5–10^2 µM peptide, 60 min, fluorescence, Hill fit, n = 3; read-out: EC50 Mammalial (concentration that triggers 50% CF release). The method in brief: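 CF-loaded extruded 0.1 µm unilamellar liposomes: bacterial POPC:POPG 75:25, mammalian POPC:POPS:Chol 65:5:30. Liposomes at 25 µM lipid in PBS pH 7.4 incubated with peptide (10^–5–10^2 µM; n = 3), fluorescence read every 2.5 min for 1 h. Release normalized to 1% Triton X-100; EC50 from Hill-1 fit.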

Residues, ends and D or L forms follow the SMILES beside them. *: point of attachment. Pentanoyl = CCCCC(=O)*

The term MBC denotes the smallest concentration meeting the test's criterion for killing. What is called MIC is the lowest concentration found to suppress growth. For the compound `CCCCC(=O)N[C@@H](CC(C)C)C(=O)NCC(=O)N[C@H](C(=O)N[C@@H](CCCCN)C(=O)N[C@H](C(=O)N[C@@H](CC(C)C)C(=O)N[C@@H](Cc1c[nH]c2ccccc12)C(=O)N[C@@H](CO)C(=O)N[C@@H](C)C(=O)N[C@@H](Cc1ccc(O)cc1)C(=O)N[C@@H](CCCCN)C(=O)N[C@@H](Cc1c[nH]cn1)C(=O)N[C@@H](CCCNC(=N)N)C(=O)N[C@@H](CCCCN)C(=O)N[C@H](C(=O)N[C@H](C(N)=O)[C@@H](C)CC)[C@@H](C)O)[C@@H](C)CC)[C@@H](C)CC` [L-6-C5] (Pentanoyl-LGIKILWSAYKHRKTI-NH2), in the test with K. pneumoniae, the MBC stood at 100 µM and the MIC is 50 µM. For the same compound, in the test with E. coli (K-12 MG1655), the “E. coli MBC” value stood at 6.2 µM and the “E. coli MIC” value came to 6.2 µM. Further, in the test on P. aeruginosa, the MBC amounted to 100 µM and the MIC is given as 50 µM. Moreover, in the test with E. faecium, the MBC is 12.5 µM and the MIC is listed as 6.3 µM. In the test with A. baumannii, the MBC stood at 6.3 µM and the MIC was determined as 3.1 µM. In addition, in the test on E. cloacae, the minimal bactericidal concentration (MBC) is recorded as more than 100 µM and the MIC is listed as more than 100 µM. Also, in [1], the “S. aureus MBC” value worked out at 6.2 µM and the “S. aureus MIC” value is 6.2 µM. Moreover, in the test on S. aureus (ATCC 29213), the “S. aureus MBC, lipopeptide alone” value is on record as 6.25 µM and the “S. aureus MIC, lipopeptide alone” value was determined as 6.25 µM. Further, in test [2], the EC50 stood at 10.5 µM.

(Values after PMC10011573, “Development of novel broad-spectrum antimicrobial lipopeptides derived from plantaricin NC8 β” (Scientific Reports, 2023).)
